{"source": "paper PMC3844181", "about": "“Studies of the Interaction between Isoimperatorin and Human Serum Albumin by Multispectroscopic Method: Identification of Possible Binding Site of the Compound Using Esterase Activity of the Protein” (The Scientific World Journal, 2013)", "key": {"[1]": {"molecular_target": "T1, Human serum albumin (HSA) (Homo sapiens, UniProt P02768)", "T1 construct": "gene ALB; mature serum albumin, 585 residues, monomer", "T1 sequence (P02768 25-609)": "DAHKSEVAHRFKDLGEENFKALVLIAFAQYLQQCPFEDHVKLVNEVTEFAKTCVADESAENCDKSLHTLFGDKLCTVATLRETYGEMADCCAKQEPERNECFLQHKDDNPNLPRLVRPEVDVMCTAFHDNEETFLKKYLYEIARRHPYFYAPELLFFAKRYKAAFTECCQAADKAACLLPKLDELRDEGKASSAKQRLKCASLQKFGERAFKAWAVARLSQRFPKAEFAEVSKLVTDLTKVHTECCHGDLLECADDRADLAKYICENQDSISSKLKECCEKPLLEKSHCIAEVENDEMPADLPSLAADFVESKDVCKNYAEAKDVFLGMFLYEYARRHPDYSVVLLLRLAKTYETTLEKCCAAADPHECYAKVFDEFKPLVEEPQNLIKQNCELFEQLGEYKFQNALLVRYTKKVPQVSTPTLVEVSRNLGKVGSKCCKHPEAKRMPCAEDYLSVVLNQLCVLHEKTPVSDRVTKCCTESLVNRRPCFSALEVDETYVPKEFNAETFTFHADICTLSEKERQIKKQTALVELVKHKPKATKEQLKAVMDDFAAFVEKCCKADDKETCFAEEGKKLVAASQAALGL", "test": "ANS fluorescence titration, Scatchard plot", "assay_type": "binding", "excerpt": "ANS fluorescence titration, Scatchard plot on Human serum albumin (HSA)"}, "[2]": {"molecular_target": "T1, Human serum albumin (HSA)", "test": "4-nitrophenyl acetate esterase assay", "assay_type": "biochemical", "conditions": "15 μM HSA, 250 μM pNPA, 250 μM compound, site I"}, "[3]": {"molecular_target": "T1, Human serum albumin (HSA)", "test": "intrinsic Trp fluorescence quenching, modified Stern-Volmer plot", "assay_type": "binding", "conditions": "298 K, 50 mM phosphate pH 7.5, 3 μM HSA, excitation 295 nm; n = 0.862; site I; double-log", "excerpt": "intrinsic Trp fluorescence quenching, modified Stern-Volmer plot on Human serum albumin (HSA)"}}}
{"smiles": "O=S(=O)(O)c1cccc2cccc(Nc3ccccc3)c12", "note": "[ANS]", "values": [{"measurement": "Kd", "setting": "[1]", "result": "900 ± 50", "unit": "nM"}]}
{"smiles": "CC(=O)Oc1ccccc1C(=O)O", "note": "[aspirin]", "values": [{"measurement": "inhibition of esterase activity", "setting": "[2]", "result": "isoimperatorin, aspirin, warfarin, indomethacin, and osthole binding sites on the HSA molecule are the same"}]}
{"smiles": "CC(C)=CCOc1c2ccoc2cc2oc(=O)ccc12", "note": "[isoimperatorin, 4-[(3-methyl-2-butenyl)oxy]-7H-furo [3,2-g] [1] benzopyran-7-one]", "values": [{"measurement": "10^-5 × K b (M^-1)", "setting": "[3]", "result": "(11.02 ± 0.10) × 10^5 M^-1"}, {"measurement": "inhibition of esterase activity", "setting": "[2]; competitive", "result": "warfarin and indomethacin (as site I marker) and isoimperatorin inhibited competitively the HSA-catalyzed hydrolysis"}]}
{"smiles": "COc1ccc2ccc(=O)oc2c1CC=C(C)C", "note": "[osthole]", "values": [{"measurement": "inhibition of esterase activity", "setting": "[2]", "result": "isoimperatorin, aspirin, warfarin, indomethacin, and osthole binding sites on the HSA molecule are the same"}]}
